Converted amounts (≈) assume the structure as drawn.
Experiments:
[1] = test system: Staphylococcus aureus; assay: Antibacterial activity against vancomycin-intermediate methicillin-resistant Staphylococcus aureus assessed as post-antibiotic sub-MIC effect at 0.2 times MIC concentration pretreated with 10 times MIC concentration for 1 hr followed by 1:1000 dilution by viable plate count method; type: functional
[2] = test system: Klebsiella pneumoniae; assay: Antibacterial activity against Klebsiella pneumoniae assessed as post-antibiotic sub-MIC effect at 0.2 times MIC concentration pretreated with 10 times MIC concentration for 1 hr followed by 1:1000 dilution by viable plate count method; type: functional
[3] = test system: Enterobacter cloacae; assay: Antibacterial activity against Enterobacter cloacae assessed as post-antibiotic sub-MIC effect at 0.2 times MIC concentration pretreated with 2 times MIC concentration for 1 hr followed by 1:1000 dilution by viable plate count method; type: functional
[4] = test system: Acinetobacter baumannii; assay: Antibacterial activity against multidrug-resistant Acinetobacter baumannii producing OXA-24 and OXA-51 beta-lactamases assessed as post-antibiotic sub-MIC effect at 0.2 times MIC concentration pretreated with 2 times MIC concentration for 1 hr followed by 1:1000 dilution by viable plate count method; type: functional
[5] = test system: Streptococcus pneumoniae; assay: Antibacterial activity against penicillin-resistant Streptococcus pneumoniae assessed as sub-MIC effect at 0.3 times MIC concentration incubated for 1 hr by viable plate count method; type: functional
[6] = test system: Haemophilus influenzae; assay: Antibacterial activity against amoxicillin, clavulanate-resistant Haemophilus influenzae expressing beta-lactamase assessed as sub-MIC effect at 0.3 times MIC concentration incubated for 1 hr by viable plate count method; type: functional
[7] = test system: Klebsiella pneumoniae; assay: Antibacterial activity against Klebsiella pneumoniae assessed as sub-MIC effect at 0.3 times MIC concentration incubated for 1 hr by viable plate count method; type: functional
[8] = test system: Acinetobacter baumannii; assay: Antibacterial activity against Acinetobacter baumannii assessed as sub-MIC effect at 0.3 times MIC concentration incubated for 1 hr by viable plate count method; type: functional
[9] = test system: Streptococcus pneumoniae; assay: Antibacterial activity against penicillin-intermediate Streptococcus pneumoniae assessed as post-antibiotic sub-MIC effect at 0.3 times MIC concentration pretreated with 10 times MIC concentration for 1 hr followed by 1:1000 dilution by viable plate count method; type: functional
[10] = test system: Staphylococcus aureus; assay: Antibacterial activity against vancomycin-sensitive methicillin-resistant Staphylococcus aureus assessed as post-antibiotic sub-MIC effect at 0.3 times MIC concentration pretreated with 6 times MIC concentration for 1 hr followed by 1:1000 dilution by viable plate count method; type: functional
[11] = test system: Klebsiella pneumoniae; assay: Antibacterial activity against Klebsiella pneumoniae assessed as post-antibiotic sub-MIC effect at 0.3 times MIC concentration pretreated with 10 times MIC concentration for 1 hr followed by 1:1000 dilution by viable plate count method; type: functional
[12] = test system: Staphylococcus aureus; assay: Antibacterial activity against vancomycin-sensitive methicillin-resistant Staphylococcus aureus assessed as sub-MIC effect at 0.4 times MIC concentration incubated for 1 hr by viable plate count method; type: functional
[13] = test system: Haemophilus influenzae; assay: Antibacterial activity against amoxicillin, clavulanate-resistant Haemophilus influenzae expressing beta-lactamase assessed as sub-MIC effect at 0.4 times MIC concentration incubated for 1 hr by viable plate count method; type: functional
[14] = test system: Enterobacter cloacae; assay: Antibacterial activity against Enterobacter cloacae assessed as sub-MIC effect at 0.4 times MIC concentration incubated for 1 hr by viable plate count method; type: functional
[15] = test system: Streptococcus pneumoniae; assay: Antibacterial activity against penicillin-resistant Streptococcus pneumoniae assessed as post-antibiotic sub-MIC effect at 0.4 times MIC concentration pretreated with 10 times MIC concentration for 1 hr followed by 1:1000 dilution by viable plate count method; type: functional
[16] = test system: Staphylococcus aureus; assay: Antibacterial activity against vancomycin-intermediate methicillin-resistant Staphylococcus aureus assessed as post-antibiotic sub-MIC effect at 0.4 times MIC concentration pretreated with 6 times MIC concentration for 1 hr followed by 1:1000 dilution by viable plate count method; type: functional
[17] = test system: Haemophilus influenzae; assay: Antibacterial activity against amoxicillin, clavulanate-resistant Haemophilus influenzae expressing beta-lactamase assessed as post-antibiotic sub-MIC effect at 0.4 times MIC concentration pretreated with 10 times MIC concentration for 1 hr followed by 1:1000 dilution by viable plate count method; type: functional
[18] = test system: Enterococcus faecalis; assay: Antibacterial activity against vancomycin-resistant Enterococcus faecalis assessed as post-antibiotic sub-MIC effect at 0.3 times MIC concentration pretreated with 10 times MIC concentration for 1 hr followed by 1:1000 dilution by viable plate count method; type: functional
[19] = test system: Haemophilus influenzae; assay: Antibacterial activity against amoxicillin, clavulanate-resistant Haemophilus influenzae expressing beta-lactamase assessed as sub-MIC effect at 0.2 times MIC concentration incubated for 1 hr by viable plate count method; type: functional
[20] = test system: Staphylococcus aureus; assay: Antibacterial activity against vancomycin-intermediate methicillin-resistant Staphylococcus aureus assessed as sub-MIC effect at 0.2 times MIC concentration incubated for 1 hr by viable plate count method; type: functional
[21] = test system: Acinetobacter baumannii; assay: Antibacterial activity against multidrug-resistant Acinetobacter baumannii producing OXA-24 and OXA-51 beta-lactamases assessed as post antibiotic effect at 10 times MIC concentration incubated for 1 hr measured after 1:1000 dilution by viable plate count method; type: functional
[22] = test system: Enterobacter cloacae; assay: Antibacterial activity against Enterobacter cloacae assessed as post antibiotic effect at 10 times MIC concentration incubated for 1 hr measured after 1:1000 dilution by viable plate count method; type: functional
[23] = test system: Haemophilus influenzae; assay: Antibacterial activity against amoxicillin, clavulanate-resistant Haemophilus influenzae expressing beta-lactamase assessed as post antibiotic effect at 6 times MIC concentration incubated for 1 hr measured after 1:1000 dilution by viable plate count method; type: functional
[24] = test system: Enterococcus faecalis; assay: Antibacterial activity against vancomycin-resistant Enterococcus faecalis assessed as post antibiotic effect at 10 times MIC concentration incubated for 1 hr measured after 1:1000 dilution by viable plate count method; type: functional
[25] = test system: Enterococcus faecalis; assay: Antibacterial activity against vancomycin-sensitive Enterococcus faecalis assessed as post antibiotic effect at 10 times MIC concentration incubated for 1 hr measured after 1:1000 dilution by viable plate count method; type: functional
[26] = test system: Staphylococcus aureus; assay: Antibacterial activity against vancomycin-sensitive methicillin-resistant Staphylococcus aureus assessed as post antibiotic effect at 10 times MIC concentration incubated for 1 hr measured after 1:1000 dilution by viable plate count method; type: functional
[27] = test system: Streptococcus pneumoniae; assay: Antibacterial activity against penicillin-resistant Streptococcus pneumoniae assessed as post antibiotic effect at 10 times MIC concentration incubated for 1 hr measured after 1:1000 dilution by viable plate count method; type: functional
[28] = test system: Streptococcus pneumoniae; assay: Antibacterial activity against penicillin-intermediate Streptococcus pneumoniae assessed as post antibiotic effect at 10 times MIC concentration incubated for 1 hr measured after 1:1000 dilution by viable plate count method; type: functional
[29] = test system: Escherichia coli; assay: Antibacterial activity against Escherichia coli by macrodilution method; type: functional
[30] = test system: Streptococcus pneumoniae; assay: Antibacterial activity against penicillin-resistant Streptococcus pneumoniae by macrodilution method; type: functional
[31] = test system: Acinetobacter baumannii; assay: Antibacterial activity against multidrug-resistant Acinetobacter baumannii producing OXA-24 and OXA-51 beta-lactamases assessed as post-antibiotic sub-MIC effect at 0.4 times MIC concentration pretreated with 2 times MIC concentration for 1 hr followed by 1:1000 dilution by viable plate count method; type: functional
[32] = test system: Klebsiella pneumoniae; assay: Antibacterial activity against Klebsiella pneumoniae assessed as post antibiotic effect; type: functional
[33] = test system: Escherichia coli; assay: Antibacterial activity against Escherichia coli infected in neutropenic mouse thighs assessed as post antibiotic effect; type: functional, Thigh muscle
[34] = Half life in patient serum at 100 mg, iv followed by 50 mg every 12 hrs after 60 mins post dose; type: ADME, organism-based; conditions: human

Compound: CN(C)c1cc(NC(=O)CNC(C)(C)C)c(O)c2c1C[C@H]1C[C@H]3[C@H](N(C)C)C(O)=C(C(N)=O)C(=O)[C@@]3(O)C(O)=C1C2=O [TIGECYCLINE]
- PAE [1]: 6.6 h
- PAE [2]: 1.9 h
- PAE [3]: 2.9 h
- PAE [4]: 1.2 h
- PAE [5]: 0.5 h
- PAE [6]: 0.8 h
- PAE [7]: 0.4 h
- PAE [8]: 1.5 h
- PAE [9]: 8.8 h
- PAE [10]: 4.9 h
- PAE [11]: 2 h
- PAE [12]: 0.9 h
- PAE [13]: 1.9 h
- PAE [14]: 2.7 h
- PAE [15]: 10.2 h
- PAE [16]: 10 h
- PAE [17]: 7.9 h
- PAE [18]: 10.5 h
- PAE [19]: 0 h
- PAE [20]: 2 h
- PAE [21]: 1.3 h
- PAE [22]: 1.2 h
- PAE [23]: 3.9 h
- PAE [24]: 6 h
- PAE [25]: 3.9 h
- PAE [26]: 3.2 h
- PAE [27]: 4.8 h
- PAE [28]: 1.9 h
- MIC [29]: 0.12 µg/mL (≈ 0.205 µM)
- MIC [30]: 0.03 µg/mL (≈ 0.0512 µM)
- PAE [31]: 3 h
- PAE [32]: 2 h
- PAE [33]: 4.9 h
- half-life [34]: 40 h

From ChEMBL document CHEMBL1629634, “Postantibiotic effect of tigecycline against 14 gram-positive organisms” (Antimicrob Agents Chemother, 2009)
